Experiments:
[1] = system: A375; experiment: Cellular growth assay (MTS), 72 h; assay type: cell-based, human; conditions: A375, 72 hr treatment, read-out: Growth Inhibition IC50
Experimental: (§1) Cells were seeded in 96-well plates (2×10^4) in triplicate and allowed to adhere overnight. Fresh media containing KPT-185, KPT-185-trans, KPT-276, or KPT-330 was added to each well at various concentrations (range = 40–10240 nM) and cells were incubated at 37°C/5% CO2 for 72 hours. Cells treated with DMSO (diluent) and untreated cells served as controls. At this time, the percentage of cell growth was evaluated using the MTS assay (CellTiter 96 AQueous Non-Radioactive Cell Proliferation Assay, Promega) and quantified by determining the optical density at 595 nm using a Bio-Rad iMark™ microplate reader. The 4-parameter logistic or Hill model was the assumed dose-response relationship for the in vitro inhibition and cell viability experiments. Nonlinear least squares regression was used to estimate the model parameters and generate 95% confidence intervals for the IC50 estimates. For in vivo experiments, tumor volumes were first log-transformed to meet test assumptions of normality and homoscedasticity. Changes in tumor volumes were analyzed using a two-sample t-test to evaluate the difference from first day of treatment to the last for A375 xenografts (day 17), and from day 1 to day 10 for CHL-1 xenografts as day 10 marks the first mouse sacrificed when 1500 mm^3 tumor volume was reached. ANOVA was used to compare the expression of XPO1 staining among samples from the melanoma tissue core array. The Wilcoxon rank-sum test was used to analyze data comparing growth inhibition and apoptosis of the five metastatic melanoma cell lines to the three melanocyte cell lines.

[2] = system: CHL-1; experiment: Cellular growth assay (MTS), 72 h; assay type: cell-based, human; conditions: Homo sapiens, CHL-1, 72 hr treatment, read-out: Growth Inhibition IC50
Experimental: as §1

[3] = system: FO-1; experiment: Cellular growth assay (MTS), 72 h; assay type: cell-based, human; conditions: FO-1, 72 hr treatment, read-out: Growth Inhibition IC50
Experimental: as §1

[4] = system: HEMn-DP; experiment: Cellular growth assay (MTS), 72 h; assay type: cell-based, human; conditions: HEMn-DP primary melanocytes, highest concentration 10240 nM
Experimental: as §1

[5] = system: HEMn-MP; experiment: Cellular growth assay (MTS), 72 h; assay type: cell-based, human; conditions: HEMn-MP primary melanocytes, highest concentration 10240 nM
Experimental: as §1

[6] = system: HEM-l; experiment: Cellular growth assay (MTS), 72 h; assay type: cell-based; conditions: Homo sapiens, Melanocyte, HEM-l primary melanocytes, 72 hr treatment, read-out: Growth Inhibition IC50
Experimental: as §1

[7] = system: Hs294T; experiment: Cellular growth assay (MTS), 72 h; assay type: cell-based; conditions: Homo sapiens, Hs 294T, 72 hr treatment, read-out: Growth Inhibition IC50
Experimental: as §1

[8] = system: Wm1366; experiment: Cellular growth assay (MTS), 72 h; assay type: cell-based; conditions: Homo sapiens, Wm1366, 72 hr treatment, read-out: Growth Inhibition IC50
Experimental: as §1

[9] = system: A375; experiment: Apoptosis via Annexin V/PI staining, flow cytometry; assay type: cell-based; conditions: Homo sapiens, A-375, A375, 72 hr treatment
Experimental: (§2) Phosphatidyl serine exposure was assessed in tumor cells and melanocytes by flow cytometry using APC-Annexin V and propidium iodide (PI; BD Pharmingen, San Diego, CA) as previously described. Each analysis was performed utilizing at least 10,000 events. We considered the Annexin V positive cells (early apoptosis) and Annexin V/PI double positive cells (late apoptosis) cells as the apoptotic cell population. The 4-parameter logistic or Hill model was the assumed dose-response relationship for the in vitro inhibition and cell viability experiments. Nonlinear least squares regression was used to estimate the model parameters and generate 95% confidence intervals for the IC50 estimates. For in vivo experiments, tumor volumes were first log-transformed to meet test assumptions of normality and homoscedasticity. Changes in tumor volumes were analyzed using a two-sample t-test to evaluate the difference from first day of treatment to the last for A375 xenografts (day 17), and from day 1 to day 10 for CHL-1 xenografts as day 10 marks the first mouse sacrificed when 1500 mm^3 tumor volume was reached. ANOVA was used to compare the expression of XPO1 staining among samples from the melanoma tissue core array. The Wilcoxon rank-sum test was used to analyze data comparing growth inhibition and apoptosis of the five metastatic melanoma cell lines to the three melanocyte cell lines.

[10] = system: CHL-1; experiment: as above; assay type: cell-based; conditions: Homo sapiens, CHL-1, 72 hr treatment
Experimental: as §2

[11] = system: FO-1; experiment: as above; assay type: cell-based; conditions: Homo sapiens, FO-1, 72 hr treatment
Experimental: as §2

[12] = system: HEM-l; experiment: as above; assay type: cell-based; conditions: Homo sapiens, Melanocyte, HEM-l primary melanocytes, 72 hr treatment
Experimental: as §2

[13] = system: Hs294T; experiment: as above; assay type: cell-based; conditions: Homo sapiens, Hs 294T, 72 hr treatment
Experimental: as §2

[14] = system: Wm1366; experiment: as above; assay type: cell-based; conditions: Homo sapiens, Wm1366, 72 hr treatment
Experimental: as §2

[15] = system: HEMn-DP; experiment: as above; assay type: cell-based, human; conditions: HEMn-DP primary melanocytes, 72 hr, range 0–10.24 µM
Experimental: as §2

[16] = system: HEMn-MP; experiment: as above; assay type: cell-based, human; conditions: HEMn-MP primary melanocytes, 72 hr, range 0–10.24 µM
Experimental: as §2

[17] = system: A375; experiment: Cell cycle assay (PI, flow cytometry); assay type: cell-based, human; conditions: A375, 1 µM, 24 h or 48 hr, PI staining
Experimental: (§3) Cell-cycle analysis was conducted using propidium iodide (PI) following the manufacturer's protocol (BD Pharmigen). Cells were plated in 6-well plates and treated for 24 h or 48 hr with 1 µM of KPT-185. A total of 1×10^5 cells per analysis were examined by flow cytometry (FACSCalibur), and analyzed using ModFit LT 3.3.

[18] = system: CHL-1; experiment: Cell cycle assay (PI, flow cytometry); assay type: cell-based, human; conditions: CHL-1, 1 µM, 24 h or 48 hr, PI staining
Experimental: as §3

[19] = system: A375; experiment: Subcellular fractionation and immunoblot analysis; assay type: cell-based, human
Experimental: (§4) Human melanoma cell lines were seeded in 6-well plates (2×10^5) and allowed to adhere overnight. After treatment for various time points, the cells were harvested then fractionated using NE-PER Nuclear and Cytoplasmic Extraction Reagents from Thermo Scientific following the manufacturer's protocol. Nuclear and cytoplasmic fractions were validated via immunoblot analysis using Lamin B and GAPDH antibodies. Immunoblots were prepared as previously described and probed with antibodies specific for TP53, CDKN1A (p21), XPO1, HDM2 (MDM2), Lamin B (Santa Cruz Biotechnology, Santa Cruz, CA), pMAPK, PARP (Cell Signaling Technology), GAPDH or β-actin (Sigma). Following incubation with the appropriate horseradish peroxidase-conjugated secondary antibody, immune complexes were detected using the ECL Plus detection kit (Amersham Biosciences, Ayesbury, UK).

[20] = system: CHL-1; experiment: Subcellular fractionation and immunoblot analysis; assay type: cell-based, human
Experimental: as §4

[21] = system: melanoma cell lines; experiment: Immunoblot analysis of PARP cleavage; assay type: cell-based, human; conditions: KPT-185 at the IC50 for apoptosis for each cell line
Experimental: Immunoblots were prepared as previously described and probed with antibodies specific for TP53, CDKN1A (p21), XPO1, HDM2 (MDM2), Lamin B (Santa Cruz Biotechnology, Santa Cruz, CA), pMAPK, PARP (Cell Signaling Technology), GAPDH or β-actin (Sigma). Following incubation with the appropriate horseradish peroxidase-conjugated secondary antibody, immune complexes were detected using the ECL Plus detection kit (Amersham Biosciences, Ayesbury, UK).

[22] = Homo sapiens, Melanocyte, read-out: Growth Inhibition IC50

For `COc1cc(-c2ncn(/C=C\C(=O)OC(C)C)n2)cc(C(F)(F)F)c1` [KPT-185], the IC50 [1] was 0.0459 µM, the IC50 ([1]; Homo sapiens, A-375, 72 h) was about 0.05 µM and the IC50 [2] was 0.592 µM. For the same compound, the IC50 [3] was 0.0321 µM, the IC50 ([3]; Homo sapiens, 72 h) was about 0.05 µM and the “Growth Inhibition IC50” value [4] was “Not achieved”. The IC50 [4, 22] was over 10.2 µM, the “Growth Inhibition IC50” value [5] was “Not achieved” and the IC50 [5, 22] was over 10.2 µM. For the same compound, the IC50 [6] was 4.13 µM, the IC50 [7] was 0.0489 µM and the IC50 [8] was 0.347 µM. For the same compound, the IC50 [9] was 0.147 µM, the IC50 [10] was 2.41 µM and the IC50 [11] was 0.297 µM. For the same compound, the IC50 [12] was 3.17 µM, the IC50 [13] was 0.212 µM and the IC50 [14] was 0.661 µM. The “Apoptosis IC50” value [15] was “not achievable”, the “Apoptosis IC50” value ([15]; listed as KPT185) was “Not achieved” and the “Apoptosis IC50” value [16] was “not achievable”. For the same compound, the “Apoptosis IC50” value ([16]; listed as KPT185) was “Not achieved”, the Cell cycle effect [17] was “arrested in the G1 phase” and the Cell cycle effect [18] was “arrested in the G1 phase”. For the same compound, the “Expression of TP53 protein” value ([19]; A375 (TP53 WT), 500 nM, nuclear localization at 16 hour) was “upregulated”, the CDKN1A expression ([19]; A375, 500 nM) was “upregulation” and the “HDM2 expression in cytoplasmic and nuclear compartment” value ([19]; A375, KPT-185 at IC50, 16 hr, no detectable protein at basal level) was “robust expression of HDM2”. The “Nuclear accumulation of phosphorylated MAPK” value ([19]; A375, nuclear fraction, immunoblot) was “accumulated in the nuclear compartment”, the “TP53 or CDKN1A induction” value ([20]; CHL-1 (mutated TP53), 500 nM) was “only limited TP53 or CDKN1A induction” and the “Nuclear accumulation of phosphorylated MAPK” value ([20]; CHL-1, nuclear fraction, immunoblot) was “accumulated in the nuclear compartment”. For the same compound, the PARP cleavage [21] was “cleavage of PARP”.
